# Read-outs that look alike come from different tables or passages of the source.
# How the values were obtained:
# [1] = test system: PMA/Ionomycin-induced NF-κB reporter gene activity; experiment: NF-κB luciferase reporter gene assay, PMA/Ionomycin-stimulated HEK293-NF-κB-luc cells; assay type: cell-based
# Source text: The strategy for compound library screening entailed using phorbol ester (phorbol myristic acetate [PMA]) and Ca^2+-ionophore Ionomycin to achieve PKC activation, mimicking the initiating events in the antigen receptor pathway. For convenience, we used HEK293 epithelial cells, in which it has previously been shown by siRNA-mediated gene silencing and transfection of dominant-negative mutants that PMA/Ionomycin-induced NF-κB activation is dependent on CARMA1, Bcl-10, and MALT. HEK293 cells were stably transfected with a luciferase reporter gene driven by a NF-κB responsive promoter, and the responsiveness of this integrated promoter to various NF-κB inducing stimuli was confirmed, including PMA/Ionomycin and TNF. Using these cells, 96- and 384-well plate-based high throughput screening (HTS) assays were established, with good assay performance characteristics (Z′>0.5) (PubChem AID=1384). We initially screened 53,280 chemical compounds at an average concentration of 5 μM, of which 519 primary hits were obtained (based on cut-off of 50% inhibition). Of these, 248 confirmed upon repeat testing (FIG. 1).
# Cell engineering. HEK293 cells were co-transfected with pUC13-4xNFκB-Luc and p-TK-puromycin-resistance plasmids. Stable clones were selected by culture in Dulbecco's Modified Eagle's Media (InVitrogen) supplemented with 10% heat-inactivated fetal bovine serum (FBS) (Hyclone), 1% v/v penicillin-streptomycin (InVitrogen) containing 1 μg/mL puromycin. Individual clones were tested for responsiveness to PMA/Ionomycin- and to TNF-induced NF-κB reporter gene activity, and a clone was selected for HTS.
# HTS. NF-κB-luciferase expressing HEK293 cells were seeded at […] per well in white 96 well plates (Greiner Bio-One) in 90 μl of DMEM and incubated overnight. 10 μl of compound-containing solution was added to each well (final 1.5 μg/mL in 1% DMSO) using a liquid handler (Biomek™ FX; Beckman Coulter). After 2 h incubation, cells were stimulated using 11 μl of a PMA (final 100 ng/mL; Calbiochem) and ionomycin (final 50 ng/mL; Calbiochem) in DMEM. Cell plates were incubated for 16 h before media was removed and 40 μl of 0.5× passive lysis buffer (Promega Corp.) was added to cell plates. Plates were allowed to stand at room temperature for at least 15 minutes before adding 40 μl of 0.125× luciferin substrate (Promega Corp.) to each well. Plates were analyzed within 30 seconds with a Criterion Analyst™ using the luminescence method (0.1 second read/well).
# Several compounds synthesized by the methods described herein were tested for their efficacy at inhibiting Nf-κB activation.
# [2] = test system: PMA/Ionomycin-induced p65-RelA DNA-binding activity; experiment: NF-κB p65 DNA-binding activity, PMA/Ionomycin-stimulated HEK293 cells; assay type: cell-based
# Method: (A) Structures of two hit compounds, CID-2858522 (left) and CID-2998237 (right) are shown; (B, C) 293-NF-κB-luc cells were pretreated for 2 hrs with various concentration of either CID-2858522 (B) or CID-29982387 (C) and then stimulated with TNF (10 ng/mL) or PMA/lonomycin (10 ng/mL; 5 ng/mL) for 16 h. Luciferase activity was measured and data were expressed as a percentage relative to control treatment with DMSO only (mean±SD; n=3). (D) 293-NF-κB-luc cells were pretreated for 2 h with various concentrations of CID-2858522 or CID-2998237, then stimulated with PMA/lonomycin for 16 h. IL-8 release into the medium was measured, expressing data as a percentage relative to control cultures treated with DMSO (mean±SD; n=3). (E) 293-NF-κB-luc cells were pretreated with CID-2858522 and then stimulated with PDBu for 16 h, IL-8 production and NF-κB luciferase activity were measured as above. (F) 293-NF-κB-luc cells were pretreated for 2 h with various concentrations of CID-2858522 or a PKC inhibitor (Bisindolylmaleimide I) at 1 μM followed by PMA/Ionomycin (10 ng/mL) stimulation for 2 h, then p65-DNA-binding activity was measured in nuclear extracts (10 μg protein), expressing data as fold-increase relative to unstimulated cells (mean±SD; n=3).
# NF-κB DNA-binding activity assays. Nuclear extracts were prepared from 10 cm^2 plates of confluent cells using a kit (Active Motif, Carsbad, Calif.). The total protein content of nuclear fractions was quantified by the Bradford method, followed by storage at −80° C. NF-κB DNA-binding activity was measured in nuclear extracts (10 μg protein) using an immunoassay method (TransAM Kit [Active Motif]) employing 96 well plates coated with double-strand oligodeoxynucleotides containing NF-κB consensus binding site (5′-[…]-3′) and anti-p65 antibody, which was detected by secondary horseradish peroxidase (HRP)-conjugated antibody, using a calorimetric substrate with absorbance read at 450 nm within 5 minutes using a spectrophotometer, SpectraMax M5 (Molecular Devices, Sunnyvale, Calif.).
# [3] = test system: 353 protein kinases; experiment: KINOMEscan kinome screen, panel of 353 protein kinases; assay type: binding, human; settings: 10 μM, of 353 protein kinases surveyed
# Source text: CID-2858522 is not a potent protein kinase inhibitor. Protein kinases play critical roles in NF-κB activation. PKCs are proximal kinases in the NF-κB pathways activated by PMA/Ionomycin and by T- and B-cell antigen receptors, while the IKKs are distal kinases operating in the terminal segments of these and other NF-κB activation pathways. We therefore tested whether CID-2858522 inhibits members of these kinase families by in vitro kinase assays. For these experiments, we tested PKC-beta and PKC-theta (the PKC family members implicated in TCR/BCR signaling), and IKK-beta (a component of the IKK complex) (FIG. 6). […] In addition to assessing these three kinases by conventional in vitro kinase assays, a kinome screen was performed using a high throughput screening method, KINOMEscan™, which is an active-site dependent competition binding assay in which human kinases of interest are fused to a proprietary tag (Ambit). The amount of kinase bound to an immobilized, active-site directed ligand is measured in the presence and absence of the test compound. […] Thus, CID-2858522 inhibits none of the protein kinases previously implicated in regulating NF-κB.
# In Vitro Kinase Assays. PKC-beta, PKC-theta and IKK-beta in vitro kinase assays were performed using the HTScan Kinase Assay Kit (Cell Signaling, Danvers, Mass.) according to manufacturer's protocols. […]
smiles,measurement,setting,value
"Cc1cc2nc(NCCCO)n(CC(=O)c3cc(C(C)(C)C)c(O)c(C(C)(C)C)c3)c2cc1C [Compound 1, 2-(2-(3-Hydroxypropylamino)-5,6-dimethyl-1H-benzo[d]imidazol-1-yl)-1-(3,5-di-tert-butyl-4-hydroxyphenyl)ethanone]",IC50,"[1]; Homo sapiens, HEK293 cell line, PMA/Ionomycin, read-out: IC50, suppression of NF-κB reporter gene activity",~70 nM
same,IC50,"[1]; Homo sapiens, PMA/Ionomycin / PKC activators, HEK293, read-out: IC50, NF-κB reporter gene assay (cellular potency)",< 100 nM
same,concentration at which maximum inhibition of NF-κB reporter is achieved,"[1]; PMA/Ionomycin, HEK293",0.25 to 0.5 µM
same,IC50,"[1]; Table II, read-out: IC50, Inhibition of antigen receptor-mediated Nf-κB",70 nM
same,concentration of maximal suppression of NF-κB DNA-binding activity,[2]; HEK293,~1 µM
same,lowest concentration with evident suppression of NF-κB DNA-binding activity,[2]; HEK293,0.1 µM
same,inhibition of p65-RelA DNA-binding activity,[2]; compared to PKC inhibitor,only partially inhibited
same,number of protein kinases suppressed by >50%,[3],3

# Reference: patent US20090247520A1, “INHIBITORS OF ANTIGEN RECEPTOR-INDUCED NF-kappa B ACTIVATION” (The Burnham Institute for Medical Research, priority 2008, published 2009)
